Legend:
[1] = tested on: STING; assay: IP10 production in human dermal microvascular endothelial cells (MVEC) after double-stranded DNA stimulation; format: cell-based; conditions: IP10 production after dsDNA stimulation; rounded average of multiple experiments; read-out: Inhibition of Human microvascular endothelial cells (IC50 nM)
Description: Interferon gamma-induced protein 10 (IP-10) also known as C—X—C motif chemokine ligand 10 (CXCL10) is produced as one of the responses of the presence of double-stranded DNA in the cytoplasm and resulting STING activity. In some diseases, imbalanced STING activation can result to damage in the endothelium, for example in SAVI patients (Liu Yet al. Activated STING in a vascular and pulmonary syndrome. N Engl J Med. 2014 Aug. 7; 371(6):507-518. doi: 10.1056/NEJMoa1312625). To test the efficacy of the inventive STING inhibitors, experiments in human microvascular endothelial cells (HMVEC) are performed with the inventive compounds. Dermal HMVEC are available from Lonza, US. They are cultured in 96 well plates according to the manufacturer's instructions. Using typical protocols, the cells are serum starved and then treated with the compound for 1 hour. The cells are then treated with 400 ng/mL of dsDNA as a complex with Lipofectamine 3000 (from Thermo Fisher Scientific Inc., Waltham, MA, USA) and incubated for 6 hours. The supernatants are collected and assayed for IP10 production.
Detection of IP10 is done using the U-PLEX HUMAN IP-10 ASSAY from Meso Scale Diagnostics (1601 Research Boulevard, Rockville, Maryland 20850-3173, USA) according to manufacturer's protocols.

[2] = tested on: T1, wild-type (GRR) human STING cGAMP binding domain (residues 155-341); assay: Differential Scanning Fluorimetry (DSF), stability of STING protein against thermal denaturation; conditions: 100 uM compound, 3 uM target protein
T1 construct: His-TEV-hSTING (WT); TEV protease cleavage site (N); made in house; host or cells: E. coli BL21 DE3
Method: Dye fluorescence is quenched in aqueous environment and increases upon association of the dye with the hydrophobic parts of the unfolding protein. […] The inflection point of the curve represents the “melting” temperature of the protein (Tm) which is calculated numerically using the Boltzmann equation.
Method: The thermal stability of the STING protein was measured using a specific expression construct of the cGAMP binding domain of wild-type (GRR) human STING comprising residues 155-341 and a N-terminal 8x His-tag in assay buffer containing 20 mM Tris, 150 mM NaCl at pH7.5.
The assay uses Hard-Shell®PCR Plates 384-Well CLR/WHT (Catalog #HSP3805, BIO-RAD), Microseal®‘B’ Adhesive Seals for PCR Plates (Catalog #MSB-1001, BIO-RAD) and was run on a CFX384 Real-Time System (Bio-Rad).
A DMSO stock solution of SYPRO orange (SIGMA S5692-500UL) was prepared.
Compound stock solutions (10 mM in DMSO) were diluted 1:2 in DMSO to an intermediate compound concentration of 5 mM and then further diluted 1:40 in assay buffer resulting in a compound concentration of 125 μM and 2.5% DMSO.
Fluorescent dye stock solution (5000×SYPRO Orange) was then mixed with target protein and buffer to a concentration of 15 uM Protein and 25×SYPRO Orange. 2 ul of this protein-dye-mixture was added to 8 ul compound solution. Final volume was 10 uL. 3-6 well positions were used as negative control (protein with 2% DMSO). The plates were prepared for duplicate measurement and centrifuged for 2 min at 1000 g. In the measurement, 160 cycles of 0.5° C. were used (temperature ramp 15 s/cycle, 15° C. to 95° C.).
Final Assay concentrations for compound characterization were as follows:
100 uM compound, 3 uM target protein, 5×SYPRO Orange, 2% DMSO in 10 ul. All dispensing steps were performed using a HamiltonStar pipetting robot (Hamilton).
Dissociation curves were processed in Bio-Rad CFX Manager. Peak type was set to “negative”.
Compound codes for screen were assigned in the plate layout.
Two replicates of TM measurements were averaged, and the standard deviation was calculated. In cases of SD>1.5° C. the measurement was repeated.
The melting point (Tm) obtained for STING protein alone was subtracted from T obtained for protein incubated with ligand to generate ΔTm values.
Protein production and purification: The protein used for the biophysical experiments was a recombinant human STING protein comprising its cytosolic ectodomain. A codon optimized DNA sequence (for expression in Escherichia coli) encoding amino acid residues 155 to 341 (Swiss Prot Q86WV6) of human STING (WT) was synthesized by GeneArt (Regensburg, Germany) and inserted into a pET17b E. coli expression vector. The protein construct encodes an N-terminal 8× His-tag followed by tobacco etch virus protease (TEV) cleavage site and the above STING gene sequence. The resulting protein sequence for the used STING variant is listed below:
For expression of recombinant human STING above construct was transformed into E. coli BL21 DE3 strain and grown in shake flasks in LB-medium at 37° C. Expression was induced by addition of isopropyl β-D-1-thiogalactopyranoside to a final concentration of 1 mM and cultures shaken overnight. Cell pellets were centrifuged and stored at −70° C. until further use. Protein was purified by cell thawing in lysis buffer (20 mM TRIS-HCl, pH 8, 300 mM NaCl, 2 mM mercaptoethanol, 20 mM imidazole, Complete Protease Inhibitor (Roche) and DNase (Roche)), followed by metal affinity purification using Ni-NTA resins and elution buffer consisting of 20 mM TRIS-HCl, pH 8, 300 mM NaCl, 2 mM mercaptoethanol, 300 mM imidazole and size exclusion chromatography in running buffer (20 mM TRIS-HCl, pH 8, 100 mM NaCl, 2 mM DTT). The peak fraction was collected and concentrated to 2.5 mg/mL.

SMILES	IC50 [1] [nM]	DSF ΔTm (K) [2] [K]
CC[P@](C)(=O)c1ccc(-c2nc(-c3cccc4nn(-c5cc(C(F)F)n(C)n5)cc34)c(C3CC3)n2C)c(OC(F)(F)F)c1 [Example 7, 4-(5-cyclopropyl-2-{4-[(S)-ethyl(methyl)phosphoryl]-2-(trifluoromethoxy)phenyl}-1-methyl-1H-imidazol-4-yl)-2-[5-(difluoromethyl)-1-methyl-1H-pyrazol-3-yl]-2H-indazole]	21	30
Cn1nc(-n2cc3c(-c4nc(-c5ccc(P(C)(C)=O)cc5OC(F)(F)F)n(C)c4C4CC4)cccc3n2)cc1C(F)(F)F [Example 20, 4-{5-cyclopropyl-2-[4-(dimethylphosphoryl)-2-(trifluoromethoxy)phenyl]-1-methyl-1H-imidazol-4-yl}-2-[1-methyl-5-(trifluoromethyl)-1H-pyrazol-3-yl]-2H-indazole]	33	30
